Measured values as given in patent US9049864B2, “Pyridazinone herbicidal compounds” (Syngenta Limited, priority 2012, dated 2015).

How the values were obtained:
Experiment in all cases: Post-emergence herbicidal glasshouse test, percentage damage to the plant
Assay type in all cases: in vivo
[1] = system: Echinochloa crus-galli (ECHCG)
Procedure: (§1) Seeds of a variety of test species are sown in standard soil in pots:—Solanum nigrum (SOLNI), Amaranthus retoflexus (AMARE), Setaria faberi (SETFA), Alopecurus myosuroides (ALOMY), Echinochloa crus-galli (ECHCG), Ipomoea hederacea (IPOHE). After 8 days cultivation (post-emergence) under controlled conditions in a glasshouse (at 24/16° C., day/night; 14 hours light; 65% humidity), the plants are sprayed with an aqueous spray solution derived from the formulation of the technical active ingredient in acetone/water (50:50) solution containing 0.5% Tween 20 (polyoxyethelyene sorbitan monolaurate, CAS RN 9005-64-5). Compounds are applied at 1000 g/ha. The test plants are then grown in a glasshouse under controlled conditions in a glasshouse (at 24/16° C., day/night; 14 hours light; 65% humidity) and watered twice daily. After 13 days, the test is evaluated for the percentage damage caused to the plant. The biological activities are shown in the following table on a five point scale (5=80-100%; 4=60-79%; 3=40-59%; 2=20-39%; 1=0-19%). A comparative experiment is conducted to compare the biological efficacy of a compound of the present invention with those of WO 2011/045271. The test is performed as outlined above using the following compounds. Three different application rates are employed (250 g/ha, 500 g/ha and 1000 g/ha).

Solanum nigrum (SOLNI) = system: Solanum nigrum (SOLNI)
Procedure: as §1

[2] = system: Ipomoea hederacea (IPOHE)
Procedure: as §1

Setaria faberi (SETFA) = system: Setaria faberi (SETFA)
Procedure: as §1

[3] = system: Amaranthus retoflexus (AMARE)
Procedure: as §1

[4] = system: Alopecurus myosuroides (ALOMY)
Procedure: as §1

[5] = post-emergence, 1000 g/ha, evaluated after 13 days
[6] = comparative experiment, rate 250 g/ha
[7] = comparative experiment, rate 500 g/ha
[8] = comparative experiment, rate 1000 g/ha

| SMILES | POST Application ECHCG, percentage damage (five point scale) [1, 5] | POST Application SOLNI, percentage damage (five point scale) (Solanum nigrum (SOLNI); [5]) | POST Application IPOHE, percentage damage (five point scale) [2, 5] | POST Application SETFA, percentage damage (five point scale) (Setaria faberi (SETFA); [5]) | POST Application AMARE, percentage damage (five point scale) [3, 5] | POST Application ALOMY, percentage damage (five point scale) [4, 5] | also measured |
| --- | --- | --- | --- | --- | --- | --- | --- |
| CC1=NN(C)C(=O)C(n2c(Cl)c(Cl)c3ccc(Cl)cc32)C1=O (stereo not drawn) [Compound 1.020] | 4 (4=60-79%) | 5 (5=80-100%) | 5 (5=80-100%) | 1 (1=0-19%) | 5 (5=80-100%) | 1 (1=0-19%) |  |
| C=CCC1=NN(C)C(=O)C(n2c(Cl)c(Cl)c3ccccc32)C1=O (stereo not drawn) [Compound 2.025] | 2 (2=20-39%) | 5 (5=80-100%) | 5 (5=80-100%) | 2 (2=20-39%) | 2 (2=20-39%) | 1 (1=0-19%) |  |
| CN1N=CC(=O)C(n2ccc3cc(Br)ccc32)C1=O (stereo not drawn) [Compound 1.004] | 1 (1=0-19%) | 4 (4=60-79%) | 1 (1=0-19%) | 1 (1=0-19%) | 1 (1=0-19%) | 1 (1=0-19%) |  |
| CN1N=CC(=O)C(n2nc(Cl)c3ccccc32)C1=O (stereo not drawn) [Compound 1.001, 4-(3-chloroindazol-1-yl)-2-methyl-pyridazine-3,5-dione] | 4 (4=60-79%) | 5 (5=80-100%) | 5 (5=80-100%) | 2 (2=20-39%) | 5 (5=80-100%) | 1 (1=0-19%) | POST Application ECHCG, percentage damage (five point scale) [1, 6]: 2 (2=20-39%); POST Application ECHCG, percentage damage (five point scale) [1, 7]: 3 (3=40-59%); POST Application ECHCG, percentage damage (five point scale) [1, 8]: 3 (3=40-59%); POST Application SOLNI, percentage damage (five point scale) (Solanum nigrum (SOLNI); [6]): 5 (5=80-100%); POST Application SOLNI, percentage damage (five point scale) (Solanum nigrum (SOLNI); [7]): 5 (5=80-100%); POST Application SOLNI, percentage damage (five point scale) (Solanum nigrum (SOLNI); [8]): 5 (5=80-100%); POST Application IPOHE, percentage damage (five point scale) [2, 6]: 5 (5=80-100%); POST Application IPOHE, percentage damage (five point scale) [2, 7]: 5 (5=80-100%); POST Application IPOHE, percentage damage (five point scale) [2, 8]: 5 (5=80-100%); POST Application SETFA, percentage damage (five point scale) (Setaria faberi (SETFA); [6]): 1 (1=0-19%); POST Application SETFA, percentage damage (five point scale) (Setaria faberi (SETFA); [7]): 1 (1=0-19%); POST Application SETFA, percentage damage (five point scale) (Setaria faberi (SETFA); [8]): 3 (3=40-59%); POST Application AMARE, percentage damage (five point scale) [3, 6]: 4 (4=60-79%); POST Application AMARE, percentage damage (five point scale) [3, 7]: 4 (4=60-79%); POST Application AMARE, percentage damage (five point scale) [3, 8]: 4 (4=60-79%); POST Application ALOMY, percentage damage (five point scale) [4, 6]: 2 (2=20-39%); POST Application ALOMY, percentage damage (five point scale) [4, 7]: 2 (2=20-39%); POST Application ALOMY, percentage damage (five point scale) [4, 8]: 2 (2=20-39%) |
| CC1=NN(C)C(=O)C(n2cc(Cl)c3ccccc32)C1=O (stereo not drawn) [Compound 1.027] | 3 (3=40-59%) | 5 (5=80-100%) | 4 (4=60-79%) | 1 (1=0-19%) | 4 (4=60-79%) | 1 (1=0-19%) |  |
| CN1N=CC(=O)C(n2ccc3ccc(Br)cc32)C1=O (stereo not drawn) [Compound 1.006] | 1 (1=0-19%) | 4 (4=60-79%) | 1 (1=0-19%) | 1 (1=0-19%) | 1 (1=0-19%) | 1 (1=0-19%) |  |
| Cc1nn(C)c(=O)c(-n2c(Cl)c(Cl)c3ccccc32)c1OC(=O)SC(C)(C)C [Compound 3.007] | 1 (1=0-19%) | 5 (5=80-100%) | 5 (5=80-100%) | 1 (1=0-19%) | 5 (5=80-100%) | 1 (1=0-19%) |  |
| CN1N=CC(=O)C(n2ccc3ccccc32)C1=O (stereo not drawn) [Compound 1.014] | 4 (4=60-79%) | 5 (5=80-100%) | 4 (4=60-79%) | 1 (1=0-19%) | 3 (3=40-59%) | 1 (1=0-19%) |  |
| CN1N=CC(=O)C(n2ccc3cc(Cl)ccc32)C1=O (stereo not drawn) [Compound 1.017] | 1 (1=0-19%) | 5 (5=80-100%) | 4 (4=60-79%) | 1 (1=0-19%) | 3 (3=40-59%) | 1 (1=0-19%) |  |
| CN1N=C(OCC(F)F)C(=O)C(n2c(Cl)c(Cl)c3ccccc32)C1=O (stereo not drawn) [Compound 2.020] | 1 (1=0-19%) | 4 (4=60-79%) | 3 (3=40-59%) | 1 (1=0-19%) | 4 (4=60-79%) | 1 (1=0-19%) |  |
| Cc1nn(C)c(=O)c(-n2c(Cl)c(Cl)c3ccccc32)c1OC(=O)C(C)(C)C [Compound 3.008] | 3 (3=40-59%) | 5 (5=80-100%) | 5 (5=80-100%) | 1 (1=0-19%) | 5 (5=80-100%) | 2 (2=20-39%) |  |
| CC1=NN(C)C(=O)C(n2c(C)cc3ccccc32)C1=O (stereo not drawn) [Compound 4.026] | 2 (2=20-39%) | 5 (5=80-100%) | 5 (5=80-100%) | 3 (3=40-59%) | 4 (4=60-79%) | 2 (2=20-39%) |  |
| CN1N=CC(=O)C(n2c(Cl)c(Cl)c3ccccc32)C1=O (stereo not drawn) [Compound 1.013] | 1 (1=0-19%) | 5 (5=80-100%) | 5 (5=80-100%) | 2 (2=20-39%) | 5 (5=80-100%) | 1 (1=0-19%) |  |
| CN1N=C(C2CC2)C(=O)C(n2c(Cl)c(Cl)c3ccccc32)C1=O (stereo not drawn) [Compound 2.026] | 1 (1=0-19%) | 5 (5=80-100%) | 5 (5=80-100%) | 2 (2=20-39%) | 4 (4=60-79%) | 1 (1=0-19%) |  |
